Experimental findings from patent US6706715B2, “Urea derivatives with antiproteolytic activity” (Aventis Pharma Deutschland GmbH, priority 2001, dated 2004) are described below.

The test deals with T1, factor VIIa/tissue factor (Homo sapiens, UniProt P08709).
T1 construct: human factor VIIa and TF
As to the kind of experiment: Factor VIIa (FVIIa) chromogenic assay. Format: biochemical. To be noted: human factor VIIa 5 nM and TF 10 nM; chromogenic substrate S-2288 500 μM; 25° C.; 15 minute preincubation; pH 8.15. As to the method: The ability of the compounds of the formula I to inhibit factor VIIa or other enzymes like factor Xa, thrombin, plasmin, or trypsin can be assessed by determining the concentration of the compound of the formula I that inhibits enzyme activity by 50%, i.e. the IC50 value, which is related to the inhibition constant Ki. Purified enzymes are used in chromogenic assays. The concentration of inhibitor that causes a 50% decrease in the rate of substrate hydrolysis is determined by linear regression after plotting the relative rates of hydrolysis (compared to the uninhibited control) versus the log of the concentration of the compound of formula I. For calculating the inhibition constant Ki, the IC50 value is corrected for competition with substrate using the formula
Ki=IC50/{1+(substrate concentration/Km)}
wherein Km is the Michaelis-Menten constant (Chen and Prusoff, Biochem. Pharmacol. 22 (1973), 3099-3108; I. H. Segal, Enzyme Kinetics, 1975, John Wiley & Sons, New York, 100-125; which are incorporated herein by reference).
a) Factor VIIa (FVIIa) Assay
The inhibitory activity (expressed as inhibition constant Ki(FVIIa)) of the compounds of formula I towards factor VIIa/tissue factor activity was determined using a chromogenic assay essentially as described previously (J. A. Ostrem et al., Biochemistry 37 (1998) 1053-1059 which is incorporated herein by reference). Kinetic assays were conducted at 25° C. in half-area microtiter plates (Costar Corp., Cambridge, Mass.) using a kinetic plate reader (Molecular Devices Spectramax 250). A typical assay consisted of 25 μl human factor VIIa and TF (5 nM and 10 nM, respective final concentration) combined with 40 μl of inhibitor dilutions in 10% DMSO/TBS-PEG buffer (50 mM Tris, 15 mM NaCl, 5 mM CaCl2, 0.05% PEG 8000, pH 8.15). Following a 15 minute preincubation period, the assay was initiated by the addition of 35 μl of the chromogenic substrate S-2288 (D-Ile-Pro-Arg-p-nitroanilide, Pharmacia Hepar Inc., 500 μM final concentration).

Molecules are shown by their SMILES.

T1 sequence (P08709 213-466 limits assumed): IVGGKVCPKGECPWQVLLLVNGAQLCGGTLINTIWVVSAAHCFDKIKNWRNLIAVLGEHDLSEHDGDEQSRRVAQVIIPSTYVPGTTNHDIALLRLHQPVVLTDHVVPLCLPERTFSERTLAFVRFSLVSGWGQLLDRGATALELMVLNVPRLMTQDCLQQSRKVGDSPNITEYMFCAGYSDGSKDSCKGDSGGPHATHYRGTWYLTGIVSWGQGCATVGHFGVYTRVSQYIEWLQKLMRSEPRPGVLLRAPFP
T1 sequence (P08709 61-212 limits assumed): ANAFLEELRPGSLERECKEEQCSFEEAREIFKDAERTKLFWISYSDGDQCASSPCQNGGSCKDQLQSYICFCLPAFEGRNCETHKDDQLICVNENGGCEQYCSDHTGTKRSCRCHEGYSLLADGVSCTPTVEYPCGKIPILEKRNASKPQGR
T1 sequence (P13726 33-295 partner): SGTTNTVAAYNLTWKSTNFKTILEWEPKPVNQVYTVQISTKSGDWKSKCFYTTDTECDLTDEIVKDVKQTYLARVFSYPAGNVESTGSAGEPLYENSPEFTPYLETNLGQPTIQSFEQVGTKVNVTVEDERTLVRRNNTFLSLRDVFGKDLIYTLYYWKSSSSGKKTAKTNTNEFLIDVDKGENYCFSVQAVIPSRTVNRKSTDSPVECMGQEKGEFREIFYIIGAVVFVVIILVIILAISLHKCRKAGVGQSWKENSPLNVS

A word on the Ki: it is the dissociation constant of the complex between target and ligand, obtained from inhibition or displacement. Low readings indicate tighter binding, high ones weaker binding. In turn, `CC(Nc1ccccc1NC(=O)Nc1ccc(C(=N)N)cc1)c1ccc(C(=O)N2CCOCC2)cc1` (stereo not drawn) [Example 5, 4-[3-(2-{1-[4-(morpholine-4-carbonyl)-phenyl]-ethylamino}-phenyl)-ureido]-benzamidine acetate] registered an inhibitory constant (Ki) of 188 nM.

`CC(Nc1ccccc1NC(=O)Nc1ccc(C(=N)N)cc1)c1ccc(C(=O)Nc2cccc(S(C)(=O)=O)c2)cc1` (stereo not drawn) [Example 19] registered an inhibition constant Ki of 51 nM.

For `CC(Nc1ccccc1NC(=O)Nc1ccc(C(=N)N)cc1)c1ccccc1` (stereo not drawn) [Example 2, 4-{3-[2-(1-Phenyl-ethylamino)-phenyl]-ureido}-benzamidin], the inhibition constant (Ki) was determined as 700 nM.

In the case of `C[C@@H](Nc1ccccc1NC(=O)Nc1ccc(C(=N)N)cc1)c1ccccc1` [Example 15], affinity was put at a Ki of 103 nM.

`CC(Nc1ccccc1NC(=O)Nc1ccc(C(=N)N)cc1)c1ccc(C(=O)Nc2csc(-c3ccccc3)c2)cc1` (stereo not drawn) [Example 30] displayed a Ki of 282 nM.

On to `CC(Nc1ccccc1CNC(=O)Nc1ccc(C(=N)N)cc1)c1cccc(C(F)(F)F)c1` (stereo not drawn) [Example 18], for which the Ki came to 44400 nM.

In the case of `CC(Nc1ccccc1NC(=O)Nc1ccc(C(=N)N)cc1)c1ccc(C(=O)NC2CCCCC2)cc1` (stereo not drawn) [Example 37], the affinity corresponds to a Ki of 56 nM.

In turn, `CC(Nc1ccccc1NC(=O)Nc1ccc(C(=N)N)cc1)c1ccc(C(=O)NCc2ccc(S(C)(=O)=O)cc2)cc1` (stereo not drawn) [Example 24] returned a Ki of 98 nM.

`CC(Nc1ccccc1NC(=O)Nc1ccc(C(=N)N)cc1)c1ccc(C(=O)Nc2ccc(C(F)(F)F)cc2)cc1` (stereo not drawn) [Example 39] returned an inhibition constant (Ki) of 935 nM.
